# US20050113450A1, “Antibacterial agents” (priority 2002, published 2005)
# Tested on: SA 9218
# Test: MIC by standard agar dilution method
# Type: cell-based
# Settings: Mueller Hinton agar, 10^4 to 10^5 cells per spot, incubated overnight at 35° C., lowest concentration that inhibits visible growth
# Procedure, shortened: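 MIC read after overnight 35 °C incubation as lowest drug level preventing visible growth. Inoculum of roughly 10^4–10^5 cells per spot (0.5 McFarland, 1:20 in TSB) applied to Mueller Hinton agar containing serial 2-fold compound dilutions.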
Structure (SMILES),MIC [µg/mL],SA 9218 MIC [µg/mL]
COc1cccc(C(=O)Nc2ccc(Br)cc2C(=O)O)c1 [PHA-504639],4,
O=C(Nc1ccc(Br)cc1C(=O)O)c1cccc(Oc2ccccc2)c1 [PHA-513535],2,
CS(=O)(=O)c1cccc(C(=O)Nc2ccc(Br)cc2C(=O)O)c1 [PHA-513541],64,
O=C(Nc1ccc(Br)cc1C(=O)O)c1cccc(C(=O)c2ccccc2)c1 [PHA-515448],2,
CN(c1ccc(Cl)cc1)S(=O)(=O)c1cc(C(=O)Nc2ccc(Br)cc2C(=O)O)cc([N+](=O)[O-])c1 [PHA-515583],8,
CN(c1ccccn1)S(=O)(=O)c1ccc(C(=O)Nc2ccc(Br)cc2C(=O)O)cc1 [PHA-516112],8,
CN(c1ccccc1N)S(=O)(=O)c1ccc(C(=O)Nc2ccc(Br)cc2C(=O)O)cc1 [PHA-516113],2,
O=C(Nc1ccc(Cl)cc1C(=O)O)c1cccc(C(=O)c2ccccc2)c1 [PHA-518226],,2
CC(=O)c1ccc(C(=O)Nc2ccc(Br)cc2C(=O)O)cc1 [PHA-520446],16,
O=C(Nc1ccc(Br)cc1C(=O)O)c1cccc(C(O)c2ccccc2)c1 (stereo not drawn) [PHA-521534],,1
N#Cc1ccc(NC(=O)c2ccccc2)c(C(=O)O)c1 [PHA-521535],,>128
CC(=O)c1cccc(C(=O)Nc2ccc(Br)cc2C(=O)O)c1 [PHA-522145],32,
O=C(Nc1ccc(Br)cc1C(=O)O)c1cccc(C(=NO)c2ccccc2)c1 [PHA-524545],,0.25
O=C(Nc1ccc(Br)cc1C(=O)O)c1cccc(C#Cc2ccccc2)c1 [PHA-526578],2,
N#Cc1ccc(NC(=O)c2ccccc2)c(C(=O)O)c1 [PHA-530685],,32
N#Cc1cc(C(=O)Nc2ccc(Br)cc2C(=O)O)cc(S(=O)(=O)N2CCc3ccccc32)c1 [PHA-530687],8,
O=C(Nc1ccc(Br)cc1C(=O)O)c1cccc(CCc2ccccc2)c1 [PHA-530989],4,
CC1(C)CN(S(=O)(=O)c2cccc(C(=O)Nc3ccc(C#N)cc3C(=O)O)c2)c2ccccc21 [PHA-555027],1,
Cc1cc(C(=O)Nc2ccc(C#N)cc2C(=O)O)cc(S(=O)(=O)N2CCc3ccccc32)c1 [PHA-556214],1,
O=C(Nc1ccc(-c2cccs2)cc1C(=O)O)c1cccc(S(=O)(=O)N2CCc3cc(Cl)ccc32)c1 [PHA-556657],2,
Cn1cccc1-c1ccc(NC(=O)c2cccc(S(=O)(=O)N3CCc4cc(Cl)ccc43)c2)c(C(=O)O)c1 [PHA-556658],8,
O=C(Nc1ccc(-c2cnccn2)cc1C(=O)O)c1cccc(S(=O)(=O)N2CCc3cc(Cl)ccc32)c1 [PHA-556661],8,
O=C(Nc1ccc(-c2ccco2)cc1C(=O)O)c1cccc(S(=O)(=O)N2CCc3cc(Cl)ccc32)c1 [PHA-556663],8,
O=C(Nc1ccc(-c2ccccc2)cc1C(=O)O)c1cccc(S(=O)(=O)N2CCc3cc(Cl)ccc32)c1 [PHA-557035],4,
N#Cc1ccc(NC(=O)c2ccc(Oc3ccccc3)cc2)c(C(=O)O)c1 [PHA-561055],1,

# Further lines, results first:
MIC [µg/mL],SA 9218 MIC [µg/mL],Structure (SMILES)
0.5,,CN(c1ccc(Cl)cc1)S(=O)(=O)c1cc(Br)cc(C(=O)Nc2ccc(Cl)cc2C(=O)O)c1 [PHA-509059]
1,,O=C(Nc1ccc(Br)cc1C(=O)O)c1cc(Br)cc(S(=O)(=O)N2CCc3cc(Br)ccc32)c1 [PHA-515585]
0.5,,O=C(Nc1ccc(Br)cc1C(=O)O)c1cccc(S(=O)(=O)n2ccc3ccccc32)c1 [PHA-516116]
0.5,,O=C(Nc1ccc([N+](=O)[O-])cc1C(=O)O)c1cccc(C(=O)c2ccccc2)c1 [PHA-519402]
1,,O=C(Nc1ccc(Br)cc1C(=O)O)c1ccc(C(=O)c2ccccc2)cc1 [PHA-520447]
1,,O=C(Nc1ccc(Br)cc1C(=O)O)c1cccc(S(=O)(=O)N2CCc3ccccc32)c1 [PHA-520938]
0.5,,"CON=C(c1ccccc1)c1cccc(C(=O)Nc2ccc(Br)cc2C(=O)O)c1 [PHA-522146, 5-Bromo-2-({3-[(methoxyimino)(phenyl)methyl]benzoyl}amino)benzoic acid]"
0.125,,"N#Cc1ccc(NC(=O)c2cccc(S(=O)(=O)N3CCc4cc(Cl)ccc43)c2)c(C(=O)O)c1 [PHA-524523, 2-({3-[(5-Chloro-2,3-dihydro-1H-indol-1-yl)sulfonyl]benzoyl}amino)-5-cyanobenzoic acid]"
1,,N#Cc1ccc(NC(=O)c2cccc(C(=O)c3ccccc3)c2)c(C(=O)O)c1 [PHA-524524]
1,,O=C(Nc1ccc(Br)cc1C(=O)O)c1cccc(Sc2ccccc2)c1 [PHA-526580]
0.25,,N#Cc1ccc(NC(=O)c2cccc(C(=NO)c3ccccc3)c2)c(C(=O)O)c1 [PHA-535548]
0.25,,CON=C(c1ccccc1)c1cccc(C(=O)Nc2ccc(C#N)cc2C(=O)O)c1 [PHA-535549]
1,,N#Cc1ccc(NC(=O)c2cccc(Oc3ccccc3)c2)c(C(=O)O)c1 [PHA-535553]
0.125,,COc1ccc2c(ccn2S(=O)(=O)c2cccc(C(=O)Nc3ccc(C#N)cc3C(=O)O)c2)c1 [PHA-543139]
1,,N#Cc1ccc(NC(=O)c2cccc(S(=O)(=O)N3CCCC3)c2)c(C(=O)O)c1 [PHA-543140]
0.125,,N#Cc1ccc(NC(=O)c2cccc(S(=O)(=O)n3ccc4ccccc43)c2)c(C(=O)O)c1 [PHA-543141]
0.125,,N#Cc1ccc(NC(=O)c2cccc(S(=O)(=O)n3ccc4cc(Cl)ccc43)c2)c(C(=O)O)c1 [PHA-543681]
0.5,,N#Cc1ccc(NC(=O)c2cccc(SC3CCCC3)c2)c(C(=O)O)c1 [PHA-546926]
0.125,,CC(Sc1cccc(C(=O)Nc2ccc(C#N)cc2C(=O)O)c1)c1ccccc1 (stereo not drawn) [PHA-547267]
1,,Cc1ccc(NC(=O)c2cccc(S(=O)(=O)N3CCc4cc(Cl)ccc43)c2)c(C(=O)O)c1 [PHA-552831]
